Molecular target: T1, papain (Carica papaya, UniProt P00784)
T1 construct: purchased Sigma Chem. Co
T1 sequence (P00784 134-345): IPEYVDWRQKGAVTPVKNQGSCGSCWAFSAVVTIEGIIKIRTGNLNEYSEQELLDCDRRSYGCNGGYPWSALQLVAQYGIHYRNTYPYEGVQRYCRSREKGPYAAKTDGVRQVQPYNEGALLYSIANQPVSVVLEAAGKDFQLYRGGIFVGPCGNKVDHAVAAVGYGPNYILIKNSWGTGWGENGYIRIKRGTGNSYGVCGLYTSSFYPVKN
Assay: Papain inhibitory activity (milk casein digestion)
Type: biochemical
Conditions: papain 80 μg/ml 0.5 ml, cysteine, pH 6.8, 1% milk casein, 40° C., 10 minutes
Procedure: Papain inhibitory activity of the compounds of this invention was assayed as follows: To 0.5 ml of a solution of papain (80 μg/ml, Sigma Chem. Co., 2x cry.), were added 0.25 ml of 40 mM cysteine dissolved in 20 mM disodium ethylenediamine tetraacetic acid solution adjusted pH to 6.8 with sodium hydroxide and 0.25 ml of 33 mM phosphate buffer (pH 6.8) with or without inhibitor. After incubation at 40° C. for 15 minutes, the resulting mixture was added to 5 ml of 1% milk casein solution in the same buffer as described above, and further incubated at 40° C. for 10 minutes. Then the mixture was mixed with 5 ml of 0.44 M trichloroacetic acid solution and followed by filtration with a sheet of Toyo filter paper No. 4. The extinction of the filtrate was read at 280 nm. The percent inhibition was calculated from the formula, 100 x (B-A)/B; wherein B stands for the absorbance without inhibitor and A for the absorbance with inhibitor. The compound Nos. in Table 1 are as defined in Examples as described hereinafter.

| Structure (SMILES) | ID50 (amount of inhibitor for 50% inhibition) |
| --- | --- |
| O=C(OC1CC2C=CC1C2)C1OC1C(=O)OC1CC2C=CC1C2 (centres unmarked) [EP-57, dinorbor-5-en-2-yl epoxysuccinate] | 0.26 γ |
| O=C(OCC1CCCCC1)[C@@H]1O[C@H]1C(=O)OCC1CCCCC1 (relative stereo) [EP-41, dicyclohexanemethyl epoxysuccinate] | 0.27 γ |
| O=C(OCCC1CCCCC1)[C@@H]1O[C@H]1C(=O)OCCC1CCCCC1 (relative stereo) [EP-61, di-2-cyclohexaneethyl epoxysuccinate] | 1.18 γ |
| C[C@H]1CC[C@@H](OC(=O)[C@@H]2O[C@H]2C(=O)O)CC1 (relative stereo) [EP-18, 4'-cis-methylcyclohexyl potassium epoxysuccinate] | 0.08 γ |
| CCOC(=O)[C@H]1O[C@@H]1C(=O)NCCC(=O)OCc1ccccc1 (relative stereo) [EP-157, N-(3-ethoxycarbonyloxirane-2-carbonyl)-β-alanine benzyl ester] | 71.50 γ |
| CCOC(=O)C1OC1C(=O)N[C@@H](CCCCNC(=O)OCc1ccc(OC)cc1)C(=O)OCc1ccccc1 (stereo partly drawn) [EP-169, N^α -(3-ethoxycarbonyloxirane-2-carbonyl)-N^ε -p-methoxybenzyloxycarbonyl-L-lysine benzyl ester] | 26.50 γ |
| COC(=O)[C@H]1O[C@@H]1C(=O)O (relative stereo) [EP-135, methyl hydrogen epoxysuccinate] | 12.20 γ |
| CCOC(=O)C1OC1C(=O)N[C@@H](CCC(=O)OCc1ccccc1)C(=O)OCc1ccccc1 (stereo partly drawn) [EP-156, N-(3-ethoxycarbonyloxirane-2-carbonyl)-L-glutamic acid dibenzyl ester] | 13.80 γ |
| O=C(OCc1cc(Cl)ccc1Cl)[C@H]1O[C@@H]1C(=O)OCc1cc(Cl)ccc1Cl (relative stereo) [EP-127, di-2',5'-dichlorobenzyl epoxysuccinate] | 2.00 γ |
| O=C(OCc1cccc(Cl)c1)[C@@H]1O[C@H]1C(=O)OCc1cccc(Cl)c1 (relative stereo) [EP-109, di-m-chlorobenzyl epoxysuccinate] | 0.50 γ |
| CC1(C)C2CCC1(C)C(OC(=O)C1OC1C(=O)OC1CC3CCC1(C)C3(C)C)C2 (centres unmarked) [EP-53, dibornyl epoxysuccinate] | 0.45 γ |
| O=C(O)[C@@H]1O[C@H]1C(=O)OCc1cccs1 (relative stereo) [EP-80, 2'-thenyl potassium epoxysuccinate] | 0.32 γ |
| O=C(OC1CC(Cl)CCC1Br)C1OC1C(=O)OC1CC(Cl)CCC1Br (stereo not drawn) [EP-11, di-2'-cis-bromo-5'-trans-chlorocyclohexyl epoxysuccinate] | 2.50 γ |
| O=C(O)[C@H]1O[C@@H]1C(=O)OCc1ccccc1Cl (relative stereo) [EP-108, o-chlorobenzyl potassium epoxysuccinate] | 0.09 γ |
| O=C(O)C1OC1C(=O)OC1CC2CCC1C2 (centres unmarked) [EP-56, norbornyl potassium epoxysuccinate] | 0.06 γ |
| O=C(O[C@@H]1CCC[C@H]1Br)[C@@H]1O[C@H]1C(=O)O[C@@H]1CCC[C@H]1Br (relative stereo) [EP-33, di-2'-trans-bromocyclopentylepoxysuccinate] | 3.20 γ |
| CCOC(=O)C1OC1C(=O)N[C@@H](CCCNC(C)=O)C(=O)OCc1ccccc1 (stereo partly drawn) [EP-172, N^α -(3-ethoxycarbonyloxirane-2-carbonyl)-N^δ -acetyl-L-ornithine benzyl ester] | 6.20 γ |
| O=C(NCCCC[C@H](NC(=O)C1OC1C(=O)OCCc1ccccc1)C(=O)OCc1ccccc1)OCc1ccccc1 (stereo partly drawn) [EP-187, N^α -(3-phenethyloxycarbonyloxirane-2-carbonyl)-N^ε -carbobenzoxy-L-lysine benzyl ester] | 1.40 γ |
| CC1CCC(OC(=O)C2OC2C(=O)OC2CCC(C)C2)C1 (stereo not drawn) [EP-31, di-3'-trans-methylcyclopentyl epoxysuccinate] | 3.25 γ |
| C#CCOC(=O)[C@H]1O[C@@H]1C(=O)O (relative stereo) [EP-141, propargyl potassium epoxysuccinate] | 1.45 γ |
| O=C(OCCCCC1CCCCC1)[C@@H]1O[C@H]1C(=O)OCCCCC1CCCCC1 (relative stereo) [EP-67, di-4-cyclohexanebutyl epoxysuccinate] | 93.28 γ |

| Structure (SMILES) | ID50 (amount of inhibitor for 50% inhibition) |
| --- | --- |
| O=C(O)[C@@H]1O[C@H]1C(=O)OCCCC1CCCC1 (relative stereo) [EP-64, 3-cyclopentanepropyl potassium epoxysuccinate] | 0.10 γ |
| O=C(CCNC(=O)[C@@H]1O[C@H]1C(=O)OCCCCC1CCCCC1)OCc1ccccc1 (relative stereo) [EP-208, N-[3-(4'-cyclohexylbutoxy)-carbonyloxirane-2-carbonyl]-β-alanine benzyl ester] | 13.12 γ |
| CC(C)(C)OC(=O)[C@H](Cc1ccccc1)NC(=O)C1OC1C(=O)OCC1CCCO1 (stereo partly drawn) [EP-218, N-[3-tetrahydrofurfuryloxycarbonyloxirane-2-carbonyl]-L-phenylalanine t-butyl ester] | 1.65 γ |
| O=C(OCCc1ccccc1)[C@H]1O[C@@H]1C(=O)OCCc1ccccc1 (relative stereo) [EP-129, di-2'-phenylethyl epoxysuccinate] | 0.78 γ |
| COC(=O)[C@H](CCCNC(=N)N)NC(=O)C1OC1C(=O)O (stereo partly drawn) [EP-200, N-(3-carboxyoxirane-2-carbonyl)-L-arginine methyl ester] | 0.88 γ |
| CCOC(=O)[C@H](CCCCNC(=O)OCc1ccccc1)NC(=O)C1OC1C(=O)[O-].[K+] (stereo partly drawn) [EP-195, N^α -(3-carboxyoxirane-2-carbonyl)-N^ε -carbobenzoxy-L-lysine ethyl ester potassium salt] | 0.43 γ |
| CCOC(=O)C1OC1C(=O)N[C@@H](CC(C)C)C(=O)OCC (stereo partly drawn) [EP-146, N-(3-ethoxycarbonyloxirane-2-carbonyl)-L-leucine ethyl ester] | 0.39 γ |
| O=C(OCc1ccccc1Cl)[C@@H]1O[C@H]1C(=O)OCc1ccccc1Cl (relative stereo) [EP-107, di-o-chlorobenzyl epoxysuccinate] | 0.15 γ |
| O=C(OCC1C=CCC1)C1OC1C(=O)OCC1C=CCC1 (centres unmarked) [EP-71, di-2-cyclopentenemethyl epoxysuccinate] | 0.40 γ |
| O=C(OCCCC1CCCC1)[C@@H]1O[C@H]1C(=O)OCCCC1CCCC1 (relative stereo) [EP-63, di-3-cyclopentanepropyl epoxysuccinate] | 54.82 γ |
| O=C(O)[C@@H]1O[C@H]1C(=O)OCCC1CCCCC1 (relative stereo) [EP-62, 2-cyclohexaneethyl potassium epoxysuccinate] | 0.08 γ |
| CCOC(=O)C1OC1C(=O)N[C@@H](CO)C(=O)OCC (stereo partly drawn) [EP-186, N^α -(3-ethoxycarbonyloxirane-2-carbonyl)-L-serine ethyl ester] | 23.15 γ |
| O=C(O)[C@H]1O[C@@H]1C(=O)OCc1ccc(Br)cc1 (relative stereo) [EP-114, p-bromobenzyl potassium epoxysuccinate] | 0.26 γ |
| O=C(O)[C@@H]1O[C@H]1C(=O)OC1CC2CCC1CC2 (relative stereo) [EP-52, bicyclo [2,2,2] octyl potassium epoxysuccinate] | 0.07 γ |
| CCOC(=O)C1OC1C(=O)N[C@@H](CCSC)C(=O)OC (stereo partly drawn) [EP-155, N-(3-ethoxycarbonyloxirane-2-carbonyl)-L-methionine methyl ester] | 9.20 γ |
| Cc1ccc(COC(=O)C2OC2C(=O)N[C@@H](CCCCNC(=O)OCc2ccccc2)C(=O)OCc2ccccc2)cc1 (stereo partly drawn) [EP-181, N^α -(3-p-methylbenzyloxycarbonyloxirane-2-carbonyl)-N^ε -carbobenzoxy-L-lysine benzyl ester] | 6.59 γ |
| Cc1cc(C)cc(COC(=O)[C@@H]2O[C@H]2C(=O)O)c1 (relative stereo) [EP-94, 3',5'-dimethylbenzyl potassium epoxysuccinate] | 0.27 γ |
| Cc1cc(C)c(COC(=O)[C@@H]2O[C@H]2C(=O)OCc2c(C)cc(C)cc2C)c(C)c1 (relative stereo) [EP-95, di-2',4',6'-trimethylbenzyl epoxysuccinate] | 4.20 γ |
| CC1CCC(OC(=O)C2OC2C(=O)O)C1 (stereo not drawn) [EP-32, 3'-trans-methylcyclopentyl potassium epoxysuccinate] | 0.09 γ |
| O=C(OCc1ccc(Cl)cc1Cl)[C@H]1O[C@@H]1C(=O)OCc1ccc(Cl)cc1Cl (relative stereo) [EP-117, di-2',4'-dichlorobenzyl epoxysuccinate] | 2.55 γ |

— US4393228A, “Epoxysuccinic acid derivatives” (Taisho Pharmaceutical Co., Ltd., priority 1977, dated 1983)
